According to article PMC10882719 (Frontiers in Neuroscience, 2024):
Where two headings read alike, the source gives them in different places.

Assays:
Assay type in all cases: cell-based
168 GPCRs [1] = target: T1, 168 GPCRs (Homo sapiens, UniProt P30411)
T1 construct: host or cells: PathHunter cell lines
T1 sequence (P30411 1-391): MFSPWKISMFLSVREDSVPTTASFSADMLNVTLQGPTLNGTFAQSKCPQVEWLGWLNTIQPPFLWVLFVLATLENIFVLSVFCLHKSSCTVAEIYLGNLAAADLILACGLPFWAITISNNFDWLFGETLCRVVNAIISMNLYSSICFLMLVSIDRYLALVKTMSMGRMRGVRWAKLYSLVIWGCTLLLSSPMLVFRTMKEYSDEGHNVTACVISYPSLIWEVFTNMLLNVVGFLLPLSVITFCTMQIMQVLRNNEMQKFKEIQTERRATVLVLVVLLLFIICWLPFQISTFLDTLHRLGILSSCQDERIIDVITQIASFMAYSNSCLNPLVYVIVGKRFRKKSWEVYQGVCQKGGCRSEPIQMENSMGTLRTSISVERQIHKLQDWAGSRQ

168 GPCRs [2] = target: T2, 168 GPCRs (Homo sapiens, UniProt P32249)
T2 construct: host or cells: PathHunter cell lines

168 GPCRs [3] = target: T3, 168 GPCRs (Homo sapiens, UniProt P35372); conditions: OPRM1
T3 construct: host or cells: PathHunter cell lines

168 GPCRs [4] = target: T4, 168 GPCRs (Homo sapiens, UniProt P08912)
T4 construct: host or cells: PathHunter cell lines
T4 sequence (P08912 1-532): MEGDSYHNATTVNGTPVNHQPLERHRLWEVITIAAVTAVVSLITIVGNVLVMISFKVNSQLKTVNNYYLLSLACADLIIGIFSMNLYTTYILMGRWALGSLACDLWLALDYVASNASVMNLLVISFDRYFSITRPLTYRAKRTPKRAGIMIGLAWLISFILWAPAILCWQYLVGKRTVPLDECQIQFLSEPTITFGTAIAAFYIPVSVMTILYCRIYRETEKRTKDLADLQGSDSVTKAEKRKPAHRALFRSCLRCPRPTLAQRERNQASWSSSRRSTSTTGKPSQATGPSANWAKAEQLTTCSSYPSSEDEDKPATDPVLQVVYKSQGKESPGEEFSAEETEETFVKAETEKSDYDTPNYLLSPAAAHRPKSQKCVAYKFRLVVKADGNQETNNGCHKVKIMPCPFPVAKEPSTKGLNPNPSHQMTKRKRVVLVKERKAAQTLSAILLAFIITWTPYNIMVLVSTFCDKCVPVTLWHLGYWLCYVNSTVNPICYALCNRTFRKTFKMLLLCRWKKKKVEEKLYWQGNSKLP

168 GPCRs [5] = target: T5, 168 GPCRs (Homo sapiens, UniProt P16473); conditions: TSHR(L)
T5 construct: host or cells: PathHunter cell lines

168 GPCRs [6] = target: T6, 168 GPCRs (Homo sapiens, UniProt O95136)
T6 construct: host or cells: PathHunter cell lines

168 GPCRs [7] = target: T7, 168 GPCRs (Homo sapiens, UniProt P51685)
T7 construct: host or cells: PathHunter cell lines

168 GPCRs [8] = target: T8, 168 GPCRs (Homo sapiens, UniProt Q9H1C0)
T8 construct: host or cells: PathHunter cell lines

168 GPCRs [9] = target: T9, 168 GPCRs (Homo sapiens, UniProt P48039); conditions: MTNR1A
T9 construct: host or cells: PathHunter cell lines

168 GPCRs [10] = target: T10, 168 GPCRs (Homo sapiens, UniProt P49682)
T10 construct: host or cells: PathHunter cell lines
T10 sequence (P49682 1-368): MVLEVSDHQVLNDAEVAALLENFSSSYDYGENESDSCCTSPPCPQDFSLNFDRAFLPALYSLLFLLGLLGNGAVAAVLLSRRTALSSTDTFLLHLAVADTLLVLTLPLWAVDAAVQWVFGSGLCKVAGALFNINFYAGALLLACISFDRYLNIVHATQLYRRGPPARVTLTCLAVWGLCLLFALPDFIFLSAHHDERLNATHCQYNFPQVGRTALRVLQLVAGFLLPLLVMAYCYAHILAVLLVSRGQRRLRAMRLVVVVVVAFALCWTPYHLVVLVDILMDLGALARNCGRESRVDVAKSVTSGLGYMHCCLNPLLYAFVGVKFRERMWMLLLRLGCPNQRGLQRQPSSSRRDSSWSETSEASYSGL

T9 sequence (P48039 whole entry): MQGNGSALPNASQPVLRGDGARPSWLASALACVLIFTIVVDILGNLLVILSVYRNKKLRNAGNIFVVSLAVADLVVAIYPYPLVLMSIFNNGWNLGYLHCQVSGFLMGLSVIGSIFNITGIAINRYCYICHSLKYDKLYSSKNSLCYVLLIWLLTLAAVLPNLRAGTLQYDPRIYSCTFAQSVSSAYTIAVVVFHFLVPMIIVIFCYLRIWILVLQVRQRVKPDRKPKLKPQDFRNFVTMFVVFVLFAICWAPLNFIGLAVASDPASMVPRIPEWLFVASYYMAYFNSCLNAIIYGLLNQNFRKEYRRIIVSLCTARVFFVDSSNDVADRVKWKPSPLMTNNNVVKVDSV
T7 sequence (P51685 whole entry): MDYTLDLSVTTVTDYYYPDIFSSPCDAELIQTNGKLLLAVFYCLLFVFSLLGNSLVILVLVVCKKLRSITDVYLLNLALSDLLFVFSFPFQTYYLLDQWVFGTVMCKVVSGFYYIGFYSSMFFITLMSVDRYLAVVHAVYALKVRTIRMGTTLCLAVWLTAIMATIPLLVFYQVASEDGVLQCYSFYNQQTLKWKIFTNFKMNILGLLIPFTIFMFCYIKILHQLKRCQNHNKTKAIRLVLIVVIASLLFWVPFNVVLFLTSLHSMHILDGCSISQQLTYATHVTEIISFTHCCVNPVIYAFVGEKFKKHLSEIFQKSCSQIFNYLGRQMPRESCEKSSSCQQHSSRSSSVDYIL
T6 sequence (O95136 whole entry): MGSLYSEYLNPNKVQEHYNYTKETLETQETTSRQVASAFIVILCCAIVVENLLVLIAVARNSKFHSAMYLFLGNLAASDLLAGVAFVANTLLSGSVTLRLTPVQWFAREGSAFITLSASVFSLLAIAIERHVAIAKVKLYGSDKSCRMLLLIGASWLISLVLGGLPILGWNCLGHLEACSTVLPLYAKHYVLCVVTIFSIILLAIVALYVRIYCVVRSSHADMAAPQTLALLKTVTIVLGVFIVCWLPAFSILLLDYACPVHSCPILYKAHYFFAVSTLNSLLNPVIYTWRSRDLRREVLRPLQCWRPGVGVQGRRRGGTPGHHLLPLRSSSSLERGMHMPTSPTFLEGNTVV
T5 sequence (P16473 21-764): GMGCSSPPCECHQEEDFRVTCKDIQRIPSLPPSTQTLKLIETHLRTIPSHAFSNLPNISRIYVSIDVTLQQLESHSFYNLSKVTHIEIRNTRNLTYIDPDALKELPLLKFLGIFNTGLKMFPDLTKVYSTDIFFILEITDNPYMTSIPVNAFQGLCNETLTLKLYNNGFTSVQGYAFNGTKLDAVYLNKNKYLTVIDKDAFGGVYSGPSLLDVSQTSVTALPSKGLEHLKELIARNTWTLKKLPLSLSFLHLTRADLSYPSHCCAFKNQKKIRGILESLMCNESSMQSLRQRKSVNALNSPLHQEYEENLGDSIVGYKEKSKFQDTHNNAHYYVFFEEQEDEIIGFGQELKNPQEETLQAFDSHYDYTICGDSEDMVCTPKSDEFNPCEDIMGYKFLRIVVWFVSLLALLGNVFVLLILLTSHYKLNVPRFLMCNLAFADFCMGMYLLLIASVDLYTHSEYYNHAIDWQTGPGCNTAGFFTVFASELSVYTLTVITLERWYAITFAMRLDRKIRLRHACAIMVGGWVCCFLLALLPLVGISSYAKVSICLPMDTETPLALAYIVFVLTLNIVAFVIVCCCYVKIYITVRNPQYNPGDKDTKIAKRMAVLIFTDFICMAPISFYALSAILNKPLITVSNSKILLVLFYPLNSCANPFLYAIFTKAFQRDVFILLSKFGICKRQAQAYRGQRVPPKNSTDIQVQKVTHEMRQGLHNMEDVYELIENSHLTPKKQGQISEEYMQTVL
T8 sequence (Q9H1C0 whole entry): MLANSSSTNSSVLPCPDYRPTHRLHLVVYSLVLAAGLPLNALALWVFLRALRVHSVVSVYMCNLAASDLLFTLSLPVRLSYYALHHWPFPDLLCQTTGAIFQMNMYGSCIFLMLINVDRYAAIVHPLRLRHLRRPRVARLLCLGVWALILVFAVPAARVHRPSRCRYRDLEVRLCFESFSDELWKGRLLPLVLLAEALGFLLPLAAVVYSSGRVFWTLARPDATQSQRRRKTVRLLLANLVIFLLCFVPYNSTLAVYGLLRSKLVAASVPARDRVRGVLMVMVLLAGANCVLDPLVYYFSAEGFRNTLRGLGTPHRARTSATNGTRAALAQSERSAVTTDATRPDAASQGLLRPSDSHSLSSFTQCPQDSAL
T2 sequence (P32249 whole entry): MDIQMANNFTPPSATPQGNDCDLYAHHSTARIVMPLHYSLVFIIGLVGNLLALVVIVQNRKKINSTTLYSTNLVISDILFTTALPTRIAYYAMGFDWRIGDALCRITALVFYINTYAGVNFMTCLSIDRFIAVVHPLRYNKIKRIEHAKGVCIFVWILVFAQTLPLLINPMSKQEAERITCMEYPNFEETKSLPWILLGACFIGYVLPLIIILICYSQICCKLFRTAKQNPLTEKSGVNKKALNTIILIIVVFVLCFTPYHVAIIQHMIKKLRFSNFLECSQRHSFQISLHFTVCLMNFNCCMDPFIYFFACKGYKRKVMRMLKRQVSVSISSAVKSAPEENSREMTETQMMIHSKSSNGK
T3 sequence (P35372 whole entry): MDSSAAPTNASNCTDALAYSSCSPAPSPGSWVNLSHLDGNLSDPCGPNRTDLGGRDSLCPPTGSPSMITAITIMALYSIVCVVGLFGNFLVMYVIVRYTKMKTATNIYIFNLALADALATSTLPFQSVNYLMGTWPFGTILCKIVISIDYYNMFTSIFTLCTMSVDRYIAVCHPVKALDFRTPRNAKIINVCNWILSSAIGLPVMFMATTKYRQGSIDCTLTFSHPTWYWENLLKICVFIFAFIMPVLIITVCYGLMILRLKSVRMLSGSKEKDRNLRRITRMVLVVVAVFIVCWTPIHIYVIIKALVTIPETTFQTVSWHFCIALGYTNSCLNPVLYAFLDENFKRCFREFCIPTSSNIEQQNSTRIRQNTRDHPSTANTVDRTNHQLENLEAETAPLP

SMILES | % Agonist Activity (168 GPCRs [1]; BDKRB2, 1 uM) | % Antagonist Activity (168 GPCRs [1]; BDKRB2, 1 uM) | % Agonist Activity (168 GPCRs [1]; BDKRB2, 10 uM) | % Antagonist Activity (168 GPCRs [1]; BDKRB2, 10 uM) | % Agonist Activity (168 GPCRs [2]; EBI2, 1 uM) | % Antagonist Activity (168 GPCRs [2]; EBI2, 1 uM) | % Agonist Activity (168 GPCRs [2]; EBI2, 10 uM) | % Antagonist Activity (168 GPCRs [2]; EBI2, 10 uM) | % Agonist Activity (168 GPCRs [3]; Conc 1 uM) | % Antagonist Activity (168 GPCRs [3]; Conc 1 uM) | % Agonist Activity (168 GPCRs [3]; Conc 10 uM) | % Antagonist Activity (168 GPCRs [3]; Conc 10 uM) | % Agonist Activity (168 GPCRs [4]; CHRM5, 1 uM) | % Antagonist Activity (168 GPCRs [4]; CHRM5, 1 uM) | % Agonist Activity (168 GPCRs [4]; CHRM5, 10 uM) | % Antagonist Activity (168 GPCRs [4]; CHRM5, 10 uM) | % Agonist Activity (168 GPCRs [5]; Conc 1 uM) | % Antagonist Activity (168 GPCRs [5]; Conc 1 uM) | % Agonist Activity (168 GPCRs [5]; Conc 10 uM) | % Antagonist Activity (168 GPCRs [5]; Conc 10 uM) | further results
CNC(C)C(=O)c1ccc2c(c1)OCO2 (centres unmarked) [methylone] | -3.6% | 7.3% | -2.9% | -2.6% | 0.5% | 0.6% | -0.1% | -2.6% | 0.2% | -8% | 0.5% | -18% | 7.2% | -8% | 8.7% | -7.6% | -1.2% | 6.1% | 0.7% | -6.6% | % Agonist Activity (168 GPCRs [6]; EDG5, 1 uM): -4.7%; % Antagonist Activity (168 GPCRs [6]; EDG5, 1 uM): -3.4%; % Agonist Activity (168 GPCRs [6]; EDG5, 10 uM): -3.7%; % Antagonist Activity (168 GPCRs [6]; EDG5, 10 uM): -6.3%; % Agonist Activity (168 GPCRs [7]; CCR8, 1 uM): -0.2%; % Antagonist Activity (168 GPCRs [7]; CCR8, 1 uM): 4.7%; % Agonist Activity (168 GPCRs [7]; CCR8, 10 uM): -0.6%; % Antagonist Activity (168 GPCRs [7]; CCR8, 10 uM): -0.3%; % Agonist Activity (168 GPCRs [8]; GPR92, 1 uM): -1.6%; % Antagonist Activity (168 GPCRs [8]; GPR92, 1 uM): -8%; % Agonist Activity (168 GPCRs [8]; GPR92, 10 uM): -3.5%; % Antagonist Activity (168 GPCRs [8]; GPR92, 10 uM): 5.8%; % Agonist Activity (168 GPCRs [9]; 1 uM): -12.3%; % Antagonist Activity (168 GPCRs [9]; 1 uM): 30.8%; % Agonist Activity (168 GPCRs [9]; 10 uM): -11.7%; % Antagonist Activity (168 GPCRs [9]; 10 uM): 7.8%; % Agonist Activity (168 GPCRs [10]; CXCR3, 1 uM): -0.2%; % Antagonist Activity (168 GPCRs [10]; CXCR3, 1 uM): 4.5%; % Agonist Activity (168 GPCRs [10]; CXCR3, 10 uM): 1.6%; % Antagonist Activity (168 GPCRs [10]; CXCR3, 10 uM): -3.9%
CNC(C)Cc1ccc2c(c1)OCO2 (centres unmarked) [MDMA, 3,4-Methylenedioxy methamphetamine, reference compound] | 0.3% | -6.6% | 0.1% | -5.6% | 0.6% | 4.4% | -0.4% | 7.9% | -0.4% | -22.1% | -0.2% | -18.9% | 8.8% | 11.2% | 8.3% | 14.4% | -0.6% | -8% | 2.8% | -5% | % Agonist Activity (168 GPCRs [6]; EDG5, 1 uM): -1.1%; % Antagonist Activity (168 GPCRs [6]; EDG5, 1 uM): -0.5%; % Agonist Activity (168 GPCRs [6]; EDG5, 10 uM): -1.5%; % Antagonist Activity (168 GPCRs [6]; EDG5, 10 uM): 0.6%; % Agonist Activity (168 GPCRs [7]; CCR8, 1 uM): -0.2%; % Antagonist Activity (168 GPCRs [7]; CCR8, 1 uM): -3.1%; % Agonist Activity (168 GPCRs [7]; CCR8, 10 uM): -0.2%; % Antagonist Activity (168 GPCRs [7]; CCR8, 10 uM): 4.3%; % Agonist Activity (168 GPCRs [8]; GPR92, 1 uM): -4%; % Antagonist Activity (168 GPCRs [8]; GPR92, 1 uM): 6.8%; % Agonist Activity (168 GPCRs [8]; GPR92, 10 uM): -2.2%; % Antagonist Activity (168 GPCRs [8]; GPR92, 10 uM): 8%; % Agonist Activity (168 GPCRs [9]; 1 uM): -9.2%; % Antagonist Activity (168 GPCRs [9]; 1 uM): 18.4%; % Agonist Activity (168 GPCRs [9]; 10 uM): -9.6%; % Antagonist Activity (168 GPCRs [9]; 10 uM): 17.7%; % Agonist Activity (168 GPCRs [10]; CXCR3, 1 uM): -3.7%; % Antagonist Activity (168 GPCRs [10]; CXCR3, 1 uM): 11.3%; % Agonist Activity (168 GPCRs [10]; CXCR3, 10 uM): -4.7%; % Antagonist Activity (168 GPCRs [10]; CXCR3, 10 uM): 17.9%
